This test deals with FGFR. Kind of test: Kinase inhibition in cell-free enzymatic assay, FGFR. The settings on record: 1 mM ATP. The test is classed as biochemical.

One may read the IC50 as the midpoint of a concentration-inhibition curve. A low value points to greater potency in that assay. With `Cc1ccc(F)c(NC(=O)Nc2ccc(-c3cccc4[nH]nc(N)c34)cc2)c1` [RTKi, N-[4-(3-amino-1H-indazol-4-yl)phenyl]-N′-(2-fluoro-5-methylphenyl)urea], the IC50 was above 12.5 µM.

Values taken from patent US20070149593A1 (Alcon, Inc., priority 2005, published 2007).
